Data taken from ChEMBL document CHEMBL4052667 (Bioorg Med Chem, 2017).

Experiments:
U-937 = assay: Antiproliferative activity against human U937 cells after 72 hrs by MTT assay; assay type: functional, cell-based; settings: U-937, 72 h
[1] = biological target: Poly [ADP-ribose] polymerase 2 (Homo sapiens, UniProt Q9UGN5); assay: Inhibition of recombinant human N-terminal GST-tagged PARP2 (2 to 583 residues) expressed in baculovirus infected Sf9 cells using biotinylated substrate after 1 hr by UV/Vis spectrophotometric analysis
Homo sapiens = species on record: Homo sapiens; assay: Selectivity ratio of IC50 for HDAC1 (unknown origin) to IC50 for HDAC6 (unknown origin)
Histone deacetylase 1 = Histone deacetylase 1 (Homo sapiens, UniProt Q13547); assay: Inhibition of HDAC1 (unknown origin) using acetylated peptide substrate preincubated for 15 mins followed by substrate addition measured after 60 mins by fluorescence analysis
[2] = Antiproliferative activity against human MCF10A cells at less than 50 uM after 72 hrs by MTT assay relative to control; assay type: cell-based, MCF-10A
HCC827 = assay: Antiproliferative activity against human HCC827 cells after 72 hrs by MTT assay; assay type: functional, cell-based; settings: HCC827, 72 h
MCF7 = assay: Antiproliferative activity against human MCF7 cells after 72 hrs by MTT assay; assay type: functional, cell-based; settings: MCF7, 72 h
MDA-MB-231 [3] = assay: Antiproliferative activity against human MDA-MB-231 cells after 5 days by MTT assay; assay type: functional, cell-based; settings: MDA-MB-231, 120 h
K562 = assay: Antiproliferative activity against human K562 cells after 72 hrs by MTT assay; assay type: functional, cell-based; settings: K562, 72 h
MCF-10A = assay: Antiproliferative activity against human MCF10A cells after 72 hrs by MTT assay; assay type: cell-based
[4] = biological target: Poly [ADP-ribose] polymerase 1 (Homo sapiens, UniProt P09874); assay: Inhibition of recombinant full length human N-terminal GST-tagged PARP1 expressed in baculovirus infected Sf9 cells using biotinylated substrate after 1 hr by UV/Vis spectrophotometric analysis
T47D = assay: Antiproliferative activity against human T47D cells after 72 hrs by MTT assay; assay type: functional, cell-based
MDA-MB-231 [5] = assay: Antiproliferative activity against human MDA-MB-231 cells after 72 hrs by MTT assay; assay type: functional, cell-based; settings: MDA-MB-231, 72 h
HeLa = assay: Antiproliferative activity against human HeLa cells after 72 hrs by MTT assay; assay type: functional, cell-based
[6] = biological target: T1, Protein deacetylase HDAC6 (Homo sapiens, UniProt Q9UBN7); assay: Inhibition of HDAC6 (unknown origin) using acetylated peptide substrate preincubated for 15 mins followed by substrate addition measured after 60 mins by fluorescence analysis
T1 sequence (Q9UBN7 whole entry): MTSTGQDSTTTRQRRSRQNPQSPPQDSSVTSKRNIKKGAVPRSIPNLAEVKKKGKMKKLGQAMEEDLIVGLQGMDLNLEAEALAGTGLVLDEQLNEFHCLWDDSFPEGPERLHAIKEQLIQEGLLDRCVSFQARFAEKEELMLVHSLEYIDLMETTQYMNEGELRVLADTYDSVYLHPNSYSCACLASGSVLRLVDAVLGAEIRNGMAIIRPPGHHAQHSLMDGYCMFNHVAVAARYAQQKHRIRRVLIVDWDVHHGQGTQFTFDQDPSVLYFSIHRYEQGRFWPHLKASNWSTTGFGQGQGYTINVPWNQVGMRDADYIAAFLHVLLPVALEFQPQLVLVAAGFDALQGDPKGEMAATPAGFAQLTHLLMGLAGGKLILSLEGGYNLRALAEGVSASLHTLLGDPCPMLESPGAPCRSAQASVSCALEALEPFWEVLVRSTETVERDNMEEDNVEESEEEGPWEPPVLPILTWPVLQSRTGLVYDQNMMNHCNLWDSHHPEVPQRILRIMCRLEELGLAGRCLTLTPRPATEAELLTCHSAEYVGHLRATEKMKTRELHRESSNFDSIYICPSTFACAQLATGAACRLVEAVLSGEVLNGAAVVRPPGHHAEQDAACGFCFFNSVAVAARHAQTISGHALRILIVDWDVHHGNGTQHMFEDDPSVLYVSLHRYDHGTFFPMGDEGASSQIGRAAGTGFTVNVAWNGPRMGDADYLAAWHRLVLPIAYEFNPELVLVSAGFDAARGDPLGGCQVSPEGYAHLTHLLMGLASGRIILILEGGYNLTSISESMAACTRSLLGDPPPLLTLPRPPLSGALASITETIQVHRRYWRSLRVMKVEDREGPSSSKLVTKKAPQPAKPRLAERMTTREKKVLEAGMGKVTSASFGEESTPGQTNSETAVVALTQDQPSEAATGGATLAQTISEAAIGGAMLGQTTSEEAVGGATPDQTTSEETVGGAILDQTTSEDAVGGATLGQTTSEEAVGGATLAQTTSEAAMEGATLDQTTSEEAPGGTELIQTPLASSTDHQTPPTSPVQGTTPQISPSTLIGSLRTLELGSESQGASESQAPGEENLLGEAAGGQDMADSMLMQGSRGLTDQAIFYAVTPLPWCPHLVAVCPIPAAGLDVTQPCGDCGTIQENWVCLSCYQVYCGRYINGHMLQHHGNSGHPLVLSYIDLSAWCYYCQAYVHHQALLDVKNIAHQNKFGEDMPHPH

MDA-MB-231 [7] = assay: Induction of apoptosis in human MDA-MB-231 cells assessed as necrotic cells at 2.5 uM after 48 hrs by Annexin V-FITC/propidium iodide staining based flow cytometry (reference value: 0.024%); assay type: functional
MDA-MB-231 [8] = assay: Induction of apoptosis in human MDA-MB-231 cells assessed as viable cells at 10 uM after 48 hrs by Annexin V-FITC/propidium iodide staining based flow cytometry (reference value: 94.9%); assay type: functional; settings: MDA-MB-231, 48 h, read-out: Activity
HCC1937 = assay: Antiproliferative activity against human HCC1937 cells after 3 days by MTT assay; assay type: functional, cell-based; settings: HCC1937, 72 h
MDA-MB-231 [9] = assay: Induction of apoptosis in human MDA-MB-231 cells assessed as early apoptotic cells at 2.5 uM after 48 hrs by Annexin V-FITC/propidium iodide staining based flow cytometry (reference value: 1.27%); assay type: functional
MDA-MB-231 [10] = assay: Induction of apoptosis in human MDA-MB-231 cells assessed as late apoptotic cells at 5 uM after 48 hrs by Annexin V-FITC/propidium iodide staining based flow cytometry (reference value: 3.82%); assay type: functional
MDA-MB-231 [11] = assay: Induction of apoptosis in human MDA-MB-231 cells assessed as viable cells at 5 uM after 48 hrs by Annexin V-FITC/propidium iodide staining based flow cytometry (reference value: 94.9%); assay type: functional; settings: MDA-MB-231, 48 h, read-out: Activity
MDA-MB-231 [12] = assay: Induction of apoptosis in human MDA-MB-231 cells assessed as necrotic cells at 10 uM after 48 hrs by Annexin V-FITC/propidium iodide staining based flow cytometry (reference value: 0.024%); assay type: functional
MDA-MB-231 [13] = assay: Induction of apoptosis in human MDA-MB-231 cells after 48 hrs by Annexin V-FITC/propidium iodide staining based flow cytometry; assay type: functional, cell-based
MDA-MB-231 [14] = assay: Induction of apoptosis in human MDA-MB-231 cells assessed as late apoptotic cells at 10 uM after 48 hrs by Annexin V-FITC/propidium iodide staining based flow cytometry (reference value: 3.82%); assay type: functional
[15] = Safety index, ratio of compound IC50 to SAHA IC50 for human MCF10A cells; assay type: ADME, cell-based, MCF-10A; settings: read-out: Ratio IC50
MDA-MB-231 [16] = assay: Induction of apoptosis in human MDA-MB-231 cells assessed as early apoptotic cells at 10 uM after 48 hrs by Annexin V-FITC/propidium iodide staining based flow cytometry (reference value: 1.27%); assay type: functional
MDA-MB-231 [17] = assay: Induction of apoptosis in human MDA-MB-231 cells assessed as late apoptotic cells at 2.5 uM after 48 hrs by Annexin V-FITC/propidium iodide staining based flow cytometry (reference value: 3.82%); assay type: functional
Raji [18] = assay: Antiproliferative activity against human Raji cells after 3 days by MTT assay; assay type: functional, cell-based; settings: 72 h
MDA-MB-231 [19] = assay: Induction of apoptosis in human MDA-MB-231 cells assessed as early apoptotic cells at 5 uM after 48 hrs by Annexin V-FITC/propidium iodide staining based flow cytometry (reference value: 1.27%); assay type: functional
MDA-MB-231 [20] = assay: Induction of apoptosis in human MDA-MB-231 cells assessed as viable cells at 2.5 uM after 48 hrs by Annexin V-FITC/propidium iodide staining based flow cytometry (reference value: 94.9%); assay type: functional; settings: MDA-MB-231, 48 h, read-out: Activity
Raji [21] = assay: Potency index, ratio of SAHA IC50 to compound IC50 for human Raji cells; assay type: functional
MDA-MB-231 [22] = assay: Induction of apoptosis in human MDA-MB-231 cells assessed as necrotic cells at 5 uM after 48 hrs by Annexin V-FITC/propidium iodide staining based flow cytometry (reference value: 0.024%); assay type: functional

Poly [ADP-ribose] polymerase 1, sequence (P09874 whole entry): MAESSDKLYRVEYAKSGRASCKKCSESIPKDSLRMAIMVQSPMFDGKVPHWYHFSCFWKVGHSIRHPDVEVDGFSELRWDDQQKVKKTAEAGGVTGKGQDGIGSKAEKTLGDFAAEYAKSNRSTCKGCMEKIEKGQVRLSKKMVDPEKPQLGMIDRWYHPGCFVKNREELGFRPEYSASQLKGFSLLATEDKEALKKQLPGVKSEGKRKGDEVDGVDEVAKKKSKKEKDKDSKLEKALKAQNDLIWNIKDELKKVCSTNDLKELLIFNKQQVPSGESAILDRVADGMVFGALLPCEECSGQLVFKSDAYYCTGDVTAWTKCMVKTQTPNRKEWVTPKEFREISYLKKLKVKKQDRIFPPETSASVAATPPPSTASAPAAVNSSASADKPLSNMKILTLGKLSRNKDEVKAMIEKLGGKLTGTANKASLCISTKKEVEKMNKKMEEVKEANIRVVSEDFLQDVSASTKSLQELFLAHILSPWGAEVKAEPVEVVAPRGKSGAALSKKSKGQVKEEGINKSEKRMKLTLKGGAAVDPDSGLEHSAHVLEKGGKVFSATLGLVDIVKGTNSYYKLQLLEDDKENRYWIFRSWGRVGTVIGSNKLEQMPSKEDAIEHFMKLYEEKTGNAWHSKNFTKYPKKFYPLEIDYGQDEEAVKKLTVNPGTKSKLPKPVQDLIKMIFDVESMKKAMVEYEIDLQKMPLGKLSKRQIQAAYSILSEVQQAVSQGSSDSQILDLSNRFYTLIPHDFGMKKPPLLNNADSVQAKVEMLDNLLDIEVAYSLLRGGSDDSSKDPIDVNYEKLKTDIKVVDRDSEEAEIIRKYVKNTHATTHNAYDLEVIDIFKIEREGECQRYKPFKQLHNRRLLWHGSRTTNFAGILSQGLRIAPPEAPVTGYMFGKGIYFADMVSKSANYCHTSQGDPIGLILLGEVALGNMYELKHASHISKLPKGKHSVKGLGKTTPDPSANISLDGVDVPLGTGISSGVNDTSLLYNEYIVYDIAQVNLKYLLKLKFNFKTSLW
Histone deacetylase 1, sequence (Q13547 whole entry): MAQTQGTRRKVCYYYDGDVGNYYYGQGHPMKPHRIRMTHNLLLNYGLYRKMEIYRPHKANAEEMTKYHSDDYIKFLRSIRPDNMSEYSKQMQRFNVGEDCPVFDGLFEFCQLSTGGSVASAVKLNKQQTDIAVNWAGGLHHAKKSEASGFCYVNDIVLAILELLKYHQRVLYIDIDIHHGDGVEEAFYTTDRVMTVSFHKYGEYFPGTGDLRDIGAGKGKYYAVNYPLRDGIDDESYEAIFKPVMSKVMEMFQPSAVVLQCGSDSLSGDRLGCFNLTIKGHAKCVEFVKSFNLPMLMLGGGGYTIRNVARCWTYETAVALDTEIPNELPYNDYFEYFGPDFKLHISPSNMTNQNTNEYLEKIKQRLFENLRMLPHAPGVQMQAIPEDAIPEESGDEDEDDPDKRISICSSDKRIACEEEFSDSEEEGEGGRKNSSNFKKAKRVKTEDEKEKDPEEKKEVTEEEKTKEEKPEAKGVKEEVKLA
Poly [ADP-ribose] polymerase 2, sequence (Q9UGN5 whole entry, the tested form may be a part): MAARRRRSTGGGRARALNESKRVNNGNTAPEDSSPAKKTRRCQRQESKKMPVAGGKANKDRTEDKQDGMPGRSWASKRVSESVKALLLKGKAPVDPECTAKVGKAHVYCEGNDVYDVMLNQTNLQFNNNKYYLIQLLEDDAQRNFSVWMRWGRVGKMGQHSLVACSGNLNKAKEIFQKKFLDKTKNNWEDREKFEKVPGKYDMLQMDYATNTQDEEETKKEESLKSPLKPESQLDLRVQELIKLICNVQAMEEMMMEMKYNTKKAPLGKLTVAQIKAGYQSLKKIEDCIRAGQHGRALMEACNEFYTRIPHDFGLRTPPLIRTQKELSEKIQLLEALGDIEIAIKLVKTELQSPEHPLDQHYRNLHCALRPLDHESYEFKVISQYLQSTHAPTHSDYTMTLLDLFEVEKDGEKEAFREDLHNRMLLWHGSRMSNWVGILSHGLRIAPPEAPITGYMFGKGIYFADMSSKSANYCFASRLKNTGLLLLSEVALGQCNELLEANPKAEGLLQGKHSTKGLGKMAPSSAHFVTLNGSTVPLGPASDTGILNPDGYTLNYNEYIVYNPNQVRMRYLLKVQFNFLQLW

IC50 (U-937) [µM]	IC50 [1] [µM]	IC50 (Histone deacetylase 1) [µM]	IC50 (HCC827) [µM]	IC50 (MCF7) [µM]	IC50 (MDA-MB-231 [3]) [µM]	IC50 (K562) [µM]	IC50 [4] [µM]	IC50 (T47D) [µM]	IC50 (MDA-MB-231 [5]) [µM]	IC50 (HeLa) [µM]	IC50 [6] [µM]	IC50 (HCC1937) [µM]	IC50 (Raji [18]) [µM]	Structure (SMILES)	IC50 (MCF-10A) [µM]	further results
20.5	0.0315	0.503	24.1	24.1	18.3	43.3	0.00616	> 50	33.2	> 50	0.0167			O=C(NO)c1ccc(CN2CCN(C(=O)c3cc(Cc4n[nH]c(=O)c5ccccc45)ccc3F)CC2)cc1	> 50	Ratio IC50 (Homo sapiens): 30; inhibition at 72 h [2]: 20 to 30%
3.88	0.00253	0.0382	2.96	8.08	0.94	7.58	0.015	4.85	2.68	6.49	0.0102	0.45	0.81	O=C(/C=C/c1ccc(CN2CCN(C(=O)c3cc(Cc4n[nH]c(=O)c5ccccc45)ccc3F)CC2)cc1)NO	17.4	Activity (MDA-MB-231 [7]): 0.34%; viability at 10 µM (MDA-MB-231 [8]): 22.3%; Activity (MDA-MB-231 [9]): 6.01%; Activity (MDA-MB-231 [10]): 7.2%; viability at 5 µM (MDA-MB-231 [11]): 80.2%; Activity (MDA-MB-231 [12]): 1.77%; Activity (MDA-MB-231 [13]): Dose-dependent effect; Activity (MDA-MB-231 [14]): 40.8%; selectivity ratio [15]: 8.2; Activity (MDA-MB-231 [16]): 35.2%; Activity (MDA-MB-231 [17]): 5.56%; Activity (MDA-MB-231 [19]): 11.9%; viability at 2.5 µM (MDA-MB-231 [20]): 88.1%; Ratio IC50 (Raji [21]): 12; Activity (MDA-MB-231 [22]): 0.634%
21.8			> 50	35.2	7.92	> 50		> 50	39.5	> 50		8.65	> 50	O=C(c1cc(Cc2n[nH]c(=O)c3ccccc23)ccc1F)N1CCN(C(=O)C2CC2)CC1 [OLAPARIB]	> 50	
